Our source for the inhibition values is patent US20260008760A1, “DIPEPTIDYL PEPTIDASE 1 INHIBITORS AND USES THEREOF” (Insmed Incorporated, priority 2024, published 2026).

One experiment concerns the target DPP1 in HL-60 cells (Homo sapiens, UniProt P53634). The experiment in a line: DPP1 Cell Single-Point Percent Inhibition Testing. The format is cell-based. Also on record: host or cells: HL-60 cells. The note with it: final compound concentration 5 nM, n = 1. The method in brief:
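HL-60 cells in unsupplemented RPMI preincubated 60 min at 37 °C with test article (5 nM final, 0.1% DMSO), then given cell-permeable H-Gly-Phe-AFC (100 μM final) for 30 min. Fluorescence at 400/505 nm; percent inhibition versus vehicle after subtracting cell-free background and 10 μM brensocatib non-specific signal.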

The target of the next experiment is human DPP1 enzyme (Homo sapiens, UniProt P53634). The experiment can be described thus: Human DPP1 Enzyme Single-Point Percent Inhibition Testing (HL-60 lysate). The format is biochemical. Details: A crude lysate of HL-60 cells (ATCC; Manassas, VA) was used as a source of human DPP1 enzyme; host or cells: HL-60 cells (crude lysate). The note with it: final compound concentration of 10 nM, 400 μM H-Gly-Arg-AMC, n = 1. The gist of the method: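 Enzyme source was HL-60 cell lysate in MES pH 6.0 buffer with NaCl and DTT, pre-incubated 10 min at 37° C with 10 nM compound (final, 1% DMSO). Cleavage of 400 μM H-Gly-Arg-AMC was followed at 350/450 nm over 90 min at 37° C, and percent inhibition was taken against vehicle wells.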
human DPP1 enzyme, sequence (P53634 25-463): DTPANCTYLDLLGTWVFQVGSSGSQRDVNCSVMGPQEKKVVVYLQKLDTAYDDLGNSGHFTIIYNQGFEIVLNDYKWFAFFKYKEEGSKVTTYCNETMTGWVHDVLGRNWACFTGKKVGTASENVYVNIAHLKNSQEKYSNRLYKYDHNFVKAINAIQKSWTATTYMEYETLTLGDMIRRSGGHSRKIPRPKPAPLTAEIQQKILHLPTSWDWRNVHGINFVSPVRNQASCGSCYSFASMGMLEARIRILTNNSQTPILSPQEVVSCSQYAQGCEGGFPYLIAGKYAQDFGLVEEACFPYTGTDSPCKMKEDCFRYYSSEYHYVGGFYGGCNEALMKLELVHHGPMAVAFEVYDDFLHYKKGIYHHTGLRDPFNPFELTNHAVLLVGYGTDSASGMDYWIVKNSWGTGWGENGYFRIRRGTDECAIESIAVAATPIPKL

DPP1 in HL-60 cells, sequence (P53634 25-463): as above

For `CCN1C(=O)Cc2ccc(-c3ccc(C[C@@H](C#N)NC(=O)[C@@H]4CNCC(OC)CO4)c(F)c3)cc21` (some centres unmarked) [Compound G4], at DPP1 in HL-60 cells, the inhibition (as a rule, how much of the control response was suppressed) at 0.005 µM was at least 93.9%. In addition, the inhibition at 0.01 µM at human DPP1 enzyme is at least 66.7%.
Turning to `CCN1C(=O)Cc2ccc(-c3ccc(C[C@@H](C#N)NC(=O)[C@@H]4CNC[C@@H](OC)CCO4)cc3)cc21` [Compound G5], the inhibition at 0.005 µM against DPP1 in HL-60 cells was at most 76.5%. The inhibition at 0.01 µM against human DPP1 enzyme fell in the range of 40 to 66.7%.
The corresponding values for `CCN1C(=O)Cc2ccc(-c3ccc(C[C@@H](C#N)NC(=O)[C@@H]4CNC[C@@H](OC)CCO4)c(F)c3)cc21` [Compound G6] are at most 76.5% and at least 66.7%.
Take `CCN1C(=O)Cc2ccc(-c3ccc(C[C@@H](C#N)NC(=O)[C@@H]4CN[C@@H](C)[C@H](O)CO4)c(F)c3)cc21` [Compound G8]: the inhibition at 0.005 µM on DPP1 in HL-60 cells was at most 76.5%. This compound had an inhibition at 0.01 µM on human DPP1 enzyme of at least 66.7%.
The corresponding values for `CO[C@@H]1CCNC[C@@H](C(=O)N[C@H](C#N)Cc2ccc(-c3ccc4cnn(C5CCN(C)CC5)c4c3)cc2)OC1` [Compound H3] are at most 76.5% and at least 66.7%.
In the case of `CO[C@@H]1CCNC[C@@H](C(=O)N[C@H](C#N)Cc2ccc(-c3ccc4cnn(C5CCN(C)CC5)c4c3)cc2F)OC1` [Compound H4], on DPP1 in HL-60 cells, the inhibition at 0.005 µM was at most 76.5%. Also, at human DPP1 enzyme, the inhibition at 0.01 µM was at least 66.7%.
For `CO[C@@H]1CCNC[C@@H](C(=O)N[C@H](C#N)Cc2ccc(-c3ccc4nnn(C)c4c3)cc2)OC1` [Compound H6], the inhibition at 0.005 µM against DPP1 in HL-60 cells was at most 76.5%. Also, the inhibition at 0.01 µM against human DPP1 enzyme was at least 66.7%.
The compound `CO[C@@H]1CCNC[C@@H](C(=O)N[C@H](C#N)Cc2ccc(-c3ccc4nnn(C)c4c3)cc2F)OC1` [Compound H8] yielded an inhibition at 0.005 µM on DPP1 in HL-60 cells of at most 76.5%. The compound further displayed an inhibition at 0.01 µM against human DPP1 enzyme of at least 66.7%.
The matching figures for `COC1CNC[C@@H](C(=O)N[C@H](C#N)Cc2ccc(-c3ccc4cnn(C5CCN(C)CC5)c4c3)cc2)OC1` (some centres unmarked) [Compound H9]: at most 76.5% and at least 66.7%.
`COC1CNC[C@@H](C(=O)N[C@H](C#N)Cc2ccc(-c3ccc4cnn(C5CCN(C)CC5)c4c3)cc2F)OC1` (some centres unmarked) [Compound H10] displayed an inhibition at 0.005 µM against DPP1 in HL-60 cells of at most 76.5%. This compound also registered an inhibition at 0.01 µM on human DPP1 enzyme of at least 66.7%.
For the compound `COC1CNC[C@@H](C(=O)N[C@H](C#N)Cc2ccc(-c3ccc4cnn(C)c4c3)cc2)OC1` (some centres unmarked) [Compound H11], the inhibition at 0.005 µM against DPP1 in HL-60 cells lay within 76.5 to 93.9%. At human DPP1 enzyme, this compound registered an inhibition at 0.01 µM of at least 66.7%.
For the compound `COC1CNC[C@@H](C(=O)N[C@H](C#N)Cc2ccc(-c3ccc4cnn(C)c4c3)cc2F)OC1` (some centres unmarked) [Compound H13], the inhibition at 0.005 µM at DPP1 in HL-60 cells was 76.5 to 93.9%. The inhibition at 0.01 µM on human DPP1 enzyme is at least 66.7%.
`COC1CNC[C@@H](C(=O)N[C@H](C#N)Cc2ccc(-c3ccc4nnn(C)c4c3)cc2F)OC1` (some centres unmarked) [Compound H14] gave an inhibition at 0.005 µM on DPP1 in HL-60 cells of 76.5 to 93.9%. Moreover, the inhibition at 0.01 µM against human DPP1 enzyme is at least 66.7%.
The corresponding values for `CO[C@H]1CCO[C@H](C(=O)N[C@H](C#N)Cc2ccc(-c3ccc4cnn(C5CCN(C)CC5)c4c3)cc2)CNC1` [Compound H15] are at most 76.5% and 40 to 66.7%.
The matching figures for `CO[C@H]1CCO[C@H](C(=O)N[C@H](C#N)Cc2ccc(-c3ccc4cnn(C5CCN(C)CC5)c4c3)cc2F)CNC1` [Compound H16]: at most 76.5% and at least 66.7%.
Turning to `CO[C@H]1CCO[C@H](C(=O)N[C@H](C#N)Cc2ccc(-c3ccc4cnn(C)c4c3)cc2)CNC1` [Compound H17], the inhibition at 0.005 µM against DPP1 in HL-60 cells was at most 76.5%. The same compound displayed an inhibition at 0.01 µM at human DPP1 enzyme of at most 40%.
In turn, `CO[C@H]1CCO[C@H](C(=O)N[C@H](C#N)Cc2ccc(-c3ccc4nnn(C)c4c3)cc2)CNC1` [Compound H18] registered an inhibition at 0.005 µM on DPP1 in HL-60 cells of at most 76.5%. On human DPP1 enzyme, this compound came in with an inhibition at 0.01 µM of at most 40%.
The matching figures for `CO[C@H]1CCO[C@H](C(=O)N[C@H](C#N)Cc2ccc(-c3ccc4cnn(C)c4c3)cc2F)CNC1` [Compound H19]: at most 76.5% and at least 66.7%.
The corresponding values for `CO[C@H]1CCO[C@H](C(=O)N[C@H](C#N)Cc2ccc(-c3ccc4nnn(C)c4c3)cc2F)CNC1` [Compound H20] are at most 76.5% and 40 to 66.7%.
Regarding `C[C@@H]1NC[C@@H](C(=O)N[C@H](C#N)Cc2ccc(-c3ccc4cnn(C5CCN(C)CC5)c4c3)cc2)OC[C@H]1O` [Compound H21], on DPP1 in HL-60 cells, the inhibition at 0.005 µM is at most 76.5%. The inhibition at 0.01 µM at human DPP1 enzyme is at least 66.7%.
`C[C@@H]1NC[C@@H](C(=O)N[C@H](C#N)Cc2ccc(-c3ccc4nnn(C)c4c3)cc2)OC[C@H]1O` [Compound H24] displayed an inhibition at 0.005 µM at DPP1 in HL-60 cells of at most 76.5%. Further, the inhibition at 0.01 µM against human DPP1 enzyme is at least 66.7%.
The matching figures for `C[C@@H]1NC[C@@H](C(=O)N[C@H](C#N)Cc2ccc(-c3ccc4cnn(C5CCN(C)CC5)c4c3)cc2)OC[C@@H]1O` [Compound H27]: at most 76.5% and at most 40%.
On DPP1 in HL-60 cells, `C[C@@H]1NC[C@@H](C(=O)N[C@H](C#N)Cc2ccc(-c3ccc4cnn(C5CCN(C)CC5)c4c3)cc2F)OC[C@@H]1O` [Compound H28] displayed an inhibition at 0.005 µM of at most 76.5%. In addition, the inhibition at 0.01 µM on human DPP1 enzyme is at least 66.7%.
At DPP1 in HL-60 cells, `C[C@@H]1NC[C@@H](C(=O)N[C@H](C#N)Cc2ccc(-c3ccc4nnn(C)c4c3)cc2)OC[C@@H]1O` [Compound H30] came in with an inhibition at 0.005 µM of at most 76.5%. The compound also came in with an inhibition at 0.01 µM on human DPP1 enzyme of at most 40%.
The corresponding values for `C[C@@H]1NC[C@@H](C(=O)N[C@H](C#N)Cc2ccc(-c3ccc4nnn(C)c4c3)cc2F)OC[C@@H]1O` [Compound H32] are at most 76.5% and 40 to 66.7%.
On DPP1 in HL-60 cells, `CN1CCC(n2ncc3ccc(-c4ccc(C[C@@H](C#N)NC(=O)[C@@H]5CNCCCCO5)cc4)cc32)CC1` [Compound H33] yielded an inhibition at 0.005 µM of at most 76.5%. On human DPP1 enzyme, this compound showed an inhibition at 0.01 µM of at most 40%.
`CN1CCC(n2ncc3ccc(-c4ccc(C[C@@H](C#N)NC(=O)[C@@H]5CNCCCCO5)c(F)c4)cc32)CC1` [Compound H34] yielded an inhibition at 0.005 µM against DPP1 in HL-60 cells of at most 76.5%. At human DPP1 enzyme, the inhibition at 0.01 µM is at least 66.7%.
Compound `Cn1ncc2ccc(-c3ccc(C[C@@H](C#N)NC(=O)[C@@H]4CNCCCCO4)cc3)cc21` [Compound H35] returned an inhibition at 0.005 µM on DPP1 in HL-60 cells of at most 76.5%. Besides, the inhibition at 0.01 µM against human DPP1 enzyme is at most 40%.
The matching figures for `Cn1nnc2ccc(-c3ccc(C[C@@H](C#N)NC(=O)[C@@H]4CNCCCCO4)cc3)cc21` [Compound H36]: at most 76.5% and at most 40%.
The matching figures for `Cn1ncc2ccc(-c3ccc(C[C@@H](C#N)NC(=O)[C@@H]4CNCCCCO4)c(F)c3)cc21` [Compound H37]: at most 76.5% and 40 to 66.7%.
The matching figures for `Cn1nnc2ccc(-c3ccc(C[C@@H](C#N)NC(=O)[C@@H]4CNCCCCO4)c(F)c3)cc21` [Compound H38]: at most 76.5% and at most 40%.
Consider `CO[C@@H]1CCNC[C@@H](C(=O)N[C@H](C#N)Cc2ccc(-c3ccn4ccnc4c3)cc2)OC1` [Compound H39], for which the inhibition at 0.005 µM on DPP1 in HL-60 cells was at most 76.5%. At human DPP1 enzyme, this compound showed an inhibition at 0.01 µM of 40 to 66.7%.
The corresponding values for `COC1CNC[C@@H](C(=O)N[C@H](C#N)Cc2ccc(-c3ccn4ccnc4c3)cc2)OC1` (some centres unmarked) [Compound H40] are at most 76.5% and 40 to 66.7%.
The matching figures for `CO[C@H]1CCO[C@H](C(=O)N[C@H](C#N)Cc2ccc(-c3ccn4ccnc4c3)cc2)CNC1` [Compound H41]: at most 76.5% and at most 40%.
The matching figures for `C[C@@H]1NC[C@@H](C(=O)N[C@H](C#N)Cc2ccc(-c3ccn4ccnc4c3)cc2)OC[C@H]1O` [Compound H42]: at most 76.5% and at least 66.7%.
In the case of `C[C@@H]1NC[C@@H](C(=O)N[C@H](C#N)Cc2ccc(-c3ccn4ccnc4c3)cc2)OC[C@@H]1O` [Compound H43], on DPP1 in HL-60 cells, the inhibition at 0.005 µM is at most 76.5%. The compound also displayed an inhibition at 0.01 µM against human DPP1 enzyme of at most 40%.
`N#C[C@H](Cc1ccc(-c2ccn3cnnc3c2)cc1)NC(=O)[C@@H]1CNCCCCO1` [Compound H44] registered an inhibition at 0.005 µM against DPP1 in HL-60 cells of at most 76.5%. On human DPP1 enzyme, this compound showed an inhibition at 0.01 µM of at most 40%.
